Assay: molar heat capacity at constant pressure
Settings: 101.33 kPa

CC(C)(C)CO [2,2-dimethyl-1-propanol]
Settings | molar heat capacity at constant pressure [J/K/mol]
155.06 K, Crystal 2, Vacuum adiabatic calorimetry | 99.89
157.04 K, Crystal 2, Vacuum adiabatic calorimetry | 100.86
159.01 K, Crystal 2, Vacuum adiabatic calorimetry | 101.85
160 K, Crystal 2 | 102.4
160.99 K, Crystal 2, Vacuum adiabatic calorimetry | 102.94
162.97 K, Crystal 2, Vacuum adiabatic calorimetry | 104.04
164.94 K, Crystal 2, Vacuum adiabatic calorimetry | 104.98
166.92 K, Crystal 2, Vacuum adiabatic calorimetry | 106.04
168.9 K, Crystal 2, Vacuum adiabatic calorimetry | 107.14
170 K, Crystal 2 | 107.8
170.88 K, Crystal 2, Vacuum adiabatic calorimetry | 108.23
172.86 K, Crystal 2, Vacuum adiabatic calorimetry | 109.18
174.83 K, Crystal 2, Vacuum adiabatic calorimetry | 110.28
176.81 K, Crystal 2, Vacuum adiabatic calorimetry | 111.23
178.79 K, Crystal 2, Vacuum adiabatic calorimetry | 112.41
180 K, Crystal 2 | 113.1
180.77 K, Crystal 2, Vacuum adiabatic calorimetry | 113.61
182.75 K, Crystal 2, Vacuum adiabatic calorimetry | 115.04
184.73 K, Crystal 2, Vacuum adiabatic calorimetry | 115.99
186.72 K, Crystal 2, Vacuum adiabatic calorimetry | 117.16
188.7 K, Crystal 2, Vacuum adiabatic calorimetry | 118.27
190 K, Crystal 2 | 119.2
190.69 K, Crystal 2, Vacuum adiabatic calorimetry | 119.62
192.68 K, Crystal 2, Vacuum adiabatic calorimetry | 120.83
194.67 K, Crystal 2, Vacuum adiabatic calorimetry | 122.08
196.66 K, Crystal 2, Vacuum adiabatic calorimetry | 123.36
198.66 K, Crystal 2, Vacuum adiabatic calorimetry | 124.74
200 K, Crystal 2 | 125.7
200.66 K, Crystal 2, Vacuum adiabatic calorimetry | 126.14
202.67 K, Crystal 2, Vacuum adiabatic calorimetry | 127.38
204.67 K, Crystal 2, Vacuum adiabatic calorimetry | 128.75
206.68 K, Crystal 2, Vacuum adiabatic calorimetry | 130.08
208.7 K, Crystal 2, Vacuum adiabatic calorimetry | 131.55
210 K, Crystal 2 | 132.5
210.71 K, Crystal 2, Vacuum adiabatic calorimetry | 132.96
212.71 K, Crystal 2, Vacuum adiabatic calorimetry | 134.53
214.72 K, Crystal 2, Vacuum adiabatic calorimetry | 136.27
216.71 K, Crystal 2, Vacuum adiabatic calorimetry | 138.22
220 K, Crystal 2 | 145
237.42 K, Crystal 1 | 158.16
239.45 K, Crystal 1 | 159.61
240 K, Crystal 1 | 160.1
241.42 K, Crystal 1 | 161.17
243.4 K, Crystal 1 | 162.58
245.38 K, Crystal 1 | 163.87
247.36 K, Crystal 1 | 165.12
249.33 K, Crystal 1 | 166.8
250 K, Crystal 1 | 167.3
251.31 K, Crystal 1 | 168.24
253.28 K, Crystal 1 | 169.62
255.26 K, Crystal 1 | 171.23
257.24 K, Crystal 1 | 172.85
259.21 K, Crystal 1 | 174.64
260 K, Crystal 1 | 175.3
261.18 K, Crystal 1 | 176.19
263.15 K, Crystal 1 | 177.74
265.1 K, Crystal 1 | 179.42
267.05 K, Crystal 1 | 181.32
268.99 K, Crystal 1 | 183.18
270 K, Crystal 1 | 184
270.93 K, Crystal 1 | 184.74
272.86 K, Crystal 1 | 186.95
274.77 K, Crystal 1 | 188.7
276.68 K, Crystal 1 | 190.91
278.57 K, Crystal 1 | 192.85
280 K, Crystal 1 | 194.5
280.46 K, Crystal 1 | 195.04
282.33 K, Crystal 1 | 197.11
284.2 K, Crystal 1 | 199.17
286.05 K, Crystal 1 | 201.41
287.9 K, Crystal 1 | 203.48
289.73 K, Crystal 1 | 205.72
290 K, Crystal 1 | 206
291.56 K, Crystal 1 | 207.85
293.37 K, Crystal 1 | 211.16
295.17 K, Crystal 1 | 213.27
298.15 K, Crystal 1 | 214.3
300 K, Crystal 1 | 216.4
310 K, Crystal 1 | 227.8
328.08 K, Liquid | 267.44
329.23 K, Liquid | 268.95
330 K, Liquid | 256.6
330.33 K, Liquid | 267.74
330.38 K, Liquid | 270.44
331.53 K, Liquid | 271.12
331.59 K, Liquid | 268.59
332.68 K, Liquid | 271.99
332.84 K, Liquid | 269.67
333.82 K, Liquid | 273.19
334.1 K, Liquid | 271.2
334.97 K, Liquid | 273.8
335.35 K, Liquid | 272.07
336.11 K, Liquid | 274.9
336.6 K, Liquid | 273.27
337.25 K, Liquid | 276.23
337.86 K, Liquid | 274.28
338.39 K, Liquid | 277.22
339.12 K, Liquid | 275.37
339.52 K, Liquid | 278.09
340 K, Liquid | 277.1
340.38 K, Liquid | 276.53
340.66 K, Liquid | 278.87
341.64 K, Liquid | 277.24
341.79 K, Liquid | 279.67
342.91 K, Liquid | 278.19
342.92 K, Liquid | 280.81
344.05 K, Liquid | 281.29
344.18 K, Liquid | 279.29
345.18 K, Liquid | 282
345.46 K, Liquid | 280.32
346.75 K, Liquid | 281.22
348.04 K, Liquid | 282.21
349.35 K, Liquid | 283.25
350 K, Liquid | 283.8
350.67 K, Liquid | 284.33
352.01 K, Liquid | 285.41
353.37 K, Liquid | 286.57
354.74 K, Liquid | 285.99
356.13 K, Liquid | 288.33
357.55 K, Liquid | 289.27
358.99 K, Liquid | 289.94
360 K, Liquid | 290.2
360.45 K, Liquid | 290.3
361.93 K, Liquid | 290.05
363.41 K, Liquid | 288.87
364.86 K, Liquid | 286.3
366.24 K, Liquid | 283
367.51 K, Liquid | 296.63
368.71 K, Liquid | 295.14
369.9 K, Liquid | 295.38
370 K, Liquid | 295.4
371.09 K, Liquid | 296.21
372.27 K, Liquid | 296.96
373.45 K, Liquid | 297.66
374.63 K, Liquid | 298.2
375.81 K, Liquid | 298.87
376.99 K, Liquid | 299.38
378.17 K, Liquid | 299.76
379.34 K, Liquid | 300.28
380.52 K, Liquid | 300.53

— the NIST ThermoML archive (doi:10.1021/je060411g)
